The values that follow come from patent publication US20010018454A1, “Method for protecting wood and wooden articles from fungal infection” (priority 2000, published 2001).

Read-outs that look alike come from different tables or passages of the source.

Assay [1] deals with blue stain infection. An excerpt: Immersion Impregnation with Aqueous Potassium Sorbate Solution Air-dry pine boards are dipped into a solution of 30% potassium sorbate in water for […] of the surface. After the treatment they are air dried.
Air-dried pine boards are, as in example 1, dipped into a solution of 30% potassium sorbate in a mixture of 75% by volume of water and 25% by volume of 1,2-propanediol, further treated and stored.
Air-dried pine boards are sprayed with a spraying pistol with a solution of 20% potassium sorbate in water until the surface is uniformly wet. The boards are then allowed to dry and are stored as in example 1.

In assay [2] the test system is molds. Particulars: 35° C. saturated water vapor. The procedure:
Two pinewood boards in each case are dipped into potassium sorbate solution (see table 1 for concentrations) and stored in a saturated water vapor atmosphere at 35° C. In parallel with this, in each case two pinewood boards, after the dipping, were additionally dirtied with soil on the surface in order to achieve greater surface contamination with molds. The boards were individually packed in film in order to exclude cross contaminations and regularly visually examined for fungal infection.

Assay [3] relates to fungi. The following applies: cited from earlier work.
The test system of assay [4] is wood-damaging fungi. Particulars: cited from earlier work.

As to `C/C=C/C=C/C(=O)[O-].[K+]` [potassium sorbate], the “Fungal infection after storage” value in assay [1] (pine boards dipped in 30% potassium sorbate in 75% by volume water / 25% by volume 1,2-propanediol, stored as in example 1) was “completely free from fungal infection”; in assay [1] (pine boards dipped in 30% potassium sorbate in water, stored in the open three weeks next to untreated boards) it was “remain free from fungal infection”; in assay [1] (pine boards sprayed with 20% potassium sorbate in water, stored as in example 1), “corresponds to that of example 1”. Further, the Fungal infection entry in assay [2] (V1: dwell time 10 min, 1 % by weight solution, without soil) is reported as “no/after 81 days”; in assay [2] (V2: dwell time 10 min, 2 % by weight solution, without soil) it was “no/after 81 days”; in assay [2] (V3: dwell time 10 min, 5 % by weight solution, without soil) it was “no/after 81 days”; in assay [2] (V4: dwell time 5 min, 10 % by weight solution, without soil), “no/after 81 days”; in assay [2] (V5: dwell time 10 min, 1 % by weight solution, with soil) it was “little/from day 43”; in assay [2] (V6: dwell time 10 min, 2 % by weight solution, with soil) it was “little/from day 53”. The Fungal infection entry in assay [2] (V7: dwell time 10 min, 5 % by weight solution, with soil) is “no/after 81 days”; in assay [2] (V8: dwell time 5 min, 10 % by weight solution, with soil), “no/after 81 days”.

On to `C/C=C/C=C/C(=O)[O-].[Na+]` [sodium sorbate], for which the “Protection of bamboo against fungal infection” value in assay [3] (generally, even after a few days) is listed as “infection with fungi”; in assay [3] (pH 3.0), “active”.

Turning to `C/C=C/C=C/C(=O)[O-].C/C=C/C=C/C(=O)[O-].[Zn+2]` [zinc salt of sorbic acid], in assay [4], the “Activity as wood preservative” value is “inactive”.
